Assay results as given in US10449230B2, “Polymyxin derived cell penetrating scaffolds” (The Regents of the University of California, priority 2016, dated 2019).
Numbered stars: 1 amine (or outer) side, 2 acyl side, 3 side chain; on linkers, the order of the positions; unused ones are H or OH. Bridge positions count the residues as written; N and C are the ends. Square brackets hold non-standard residues; d marks the D form. Peptide text beside a SMILES is read from it. * marks the point of attachment. Biotin = O=C1N[C@H]2[C@H](CS[C@H]2CCCCC(=O)*)N1; X1 = O=C(CCCc1cn(CCOCCOCCOCCN[*:1])nn1)[*:2]; Agb = N=C(N)NCC[C@H](N)C(=O)O; Dab = NCC[C@H](N)C(=O)O

How the values were obtained:
CHO-K1 cells [1] = assay: Cellular uptake of transporter-ST-PE-Cy5 conjugates, flow cytometry (MFI); type: cell-based, Chinese hamster; settings: for Uptake of ST-PE-Cy5 incubated with transporter lacking the biotin moiety: CHO-K1, 37° C., 1 h, FIG. 4
Experimental: The polymyxin derivatives (2.5 μM in PBS) were incubated with ST-PE-Cy5 (0.5 μM in PBS) for 20 min at ambient temperature then diluted with F-12 cell culture medium to give final conjugate solutions.
Cells were plated onto 24-well plates (100 000 cells/well) and grown for 24 h to about 80% confluence. Cells were washed with PBS and incubated with 300 μL of the corresponding conjugate for 1 h at 37° C. under an atmosphere of 5% CO2. Cells were washed twice with PBS, detached with 50 μL of trypsin-EDTA for uptake studies or 100 μL Versene (EDTA) for binding studies, diluted with PBS containing 0.1% BSA, and analyzed by FACS. Cellular uptake was quantified by the mean fluorescence intensity; raw data was interpreted by using FlowJo v8.8.6.
Wild type CHO-K1 cells were incubated with the carrier-ST-PE-Cy5 conjugate for 1 h at 37° C., detached with trypsin/EDTA, and analyzed by flow cytometry (see, e.g., H. O'Dowd, B. Kim, P. Margolis, W. Wang, C. Wu, S. L. Lopez and J. Blais, Tetrahedron Lett., 2007, 48, 2003-2005). […] Cellular uptake of GPMB and PMB conjugated to ST-PE-Cy5 was measured in CHO-K1, HEK-293, and HEP-3B cells. The cells were incubated with conjugate (5 nM) at 37° C. for 1 h. Mean fluorescence intensity was measured by flow cytometry. The background signal from untreated cells was subtracted (FIG. 2).
The mixtures were then added to CHO-K1 cells and incubated at 37° C. for 1 h. Mean fluorescence intensity was measured by flow cytometry and the background signal from untreated cells was subtracted.

CHO-K1 cells [2] = assay: Cytoplasmic delivery of streptavidin-saporin, CellTiter-Blue viability; type: cell-based, Chinese hamster; settings: CHO-K1, four days at 37° C., FIG. 8
Experimental: The biotinylated transporters were incubated with ST-Sap in a 5:1 molar ratio for 20 min at ambient temperature then diluted with F-12 cell culture medium to give final conjugate solutions. CHO-K1 and pgsA cells were incubated with 100 μL of the corresponding conjugate for 4 days at 37° C. under an atmosphere of 5% CO2. CellTiter-Blue (20 μL) was added to the medium and incubated for an additional 4 h to measure viability.
The ability of bPMB and bGPMB to deliver cargo to the cytosol was evaluated by conjugating the transporter to streptavidin-saporin (ST-SAP) and incubating the conjugate with CHO-K1 or pgsA cells at various concentrations. CHO-K1 cells were incubated with transporter-streptavidin-saporin conjugates at 37° C.
Saporin (no streptavidin) was incubated with bPMB or bGPMB for 20 min then diluted to final saporin concentrations and added to CHO-K1 cells. After four days, the number of viable cells was determined using CellTiter-Blue assay and the fluorescence intensity at was measured at 560/590 (FIG. 9A). pgsA cells were incubated with transporter-streptavidin-saporin conjugates at 37° C. After four days, the number of viable cells was determined using CellTiter-Blue and fluorescence intensity was measured at 560/590 (FIG. 9B).

CHO-K1 cells [3] = settings: CHO-K1, 72 h, concentrations as high as 0.5 μM, FIG. 3A
Experimental: (§1) Cell titer blue was added and incubated an additional 4 hours. Cell viability was calculated by measuring the fluorescence intensity at 560/590.

HEK-293 cells = settings: HEK-293, 72 h, concentrations as high as 0.5 μM, FIG. 3B
Experimental: as §1

CHO-K1 cells [4] = settings: liposomes with 10 mol % carrier, 0.30, 0.50 or 0.70 μg/mL, 1 h at 37° C., FIG. 10
Experimental: A mixture (30 mg total) of DOPC, DOPE, and cholesterol (73:11:16) was dissolved in chloroform to a final volume of 1 mL and evaporated in a round flask and further dried under high vacuum overnight to form a thin lipid layer. The resulting film was hydrated for 15 min at 37° C. with 1 mL of PBS containing 100 μM Cy5. The mixture was sonicated for 30 s, subjected to six freeze/thaw cycles using a dry ice/acetone bath and a water bath at 37° C. Lastly, the suspension was extruded 17 times through a polycarbonate membrane (pore size 100 nm) at room temperature. Non-encapsulated dye was removed by gravitational gel filtration (Sephadex G-50). Lipid concentration was determined adapting the Stewart method. […] Unincorporated PMB or GPMB was removed via centrifuge gel filtration (Sephadex G-50) (see, e.g., D. W. Fry, J. C. White and I. D. Goldman, Anal. Biochem., 1978, 90, 809-815).
To examine the significance of the cyclic peptide as a delivery module, rather than the lipophilic tail, and the versatility of PMB and GPMB as transporters, liposomes containing the fluorescent Cy5 dye were mixed with 10 mol % PMB or GPMB. Uptake was evaluated using flow cytometry and the size and zeta potential of the liposomes were measured using dynamic light scattering (DLS) and are shown in Table 1 below. […]

Compound | Cytotoxicity (Cell-Titer Blue) (CHO-K1 cells [3]) | Cytotoxicity (Cell-Titer Blue) (HEK-293 cells) | Uptake of ST-PE-Cy5 incubated with transporter lacking the biotin moiety (CHO-K1 cells [1]) | Delivery of cargo containing liposomes into wild-type CHO cells (CHO-K1 cells [4]) | other results
Octaarginine [bArg8] | – | – | – | – | Cellular uptake of ST-PE-Cy5 conjugate compared with bPMB and bGPMB (CHO-K1 cells [1]; CHO-K1, 1 h at 37° C., MFI, FIG. 1A): approximately three-fold higher uptake; LD50 of transporter-streptavidin-saporin conjugate (CHO-K1 cells [2]): 3.1 nM
CC(C)C[C@@H]1NC(=O)[C@@H](Cc2ccccc2)NC(=O)[C@H](CCN)NC(=O)[C@@H](NC(=O)[C@H](CCN)NC(=O)[C@@H](NC(=O)[C@H](CCN)NC(=O)CCCc2cn(CCOCCOCCOCCNC(=O)CCCC[C@@H]3SC[C@@H]4NC(=O)N[C@@H]43)nn2)[C@@H](C)O)CCNC(=O)[C@H]([C@@H](C)O)NC(=O)[C@H](CCN)NC(=O)[C@H](CCN)NC1=O [bPMB, biotinylated polymyxin B] (Biotin-[X1][Dab]T[Dab][Dab][Dab][dF]L[Dab][Dab]T; lactam 5-C) | no cytotoxicity | no cytotoxicity | – | – | –
guanidinylated polymyxin B [GPMB] | – | – | No enhanced uptake | enhance delivery | –
CC(C)C[C@@H]1NC(=O)[C@@H](Cc2ccccc2)NC(=O)[C@H](CCNC(=N)N)NC(=O)[C@@H](NC(=O)[C@H](CCNC(=N)N)NC(=O)[C@@H](NC(=O)[C@H](CCNC(=N)N)NC(=O)CCCc2cn(CCOCCOCCOCCNC(=O)CCCC[C@@H]3SC[C@@H]4NC(=O)N[C@@H]43)nn2)[C@@H](C)O)CCNC(=O)[C@H]([C@@H](C)O)NC(=O)[C@H](CCNC(=N)N)NC(=O)[C@H](CCNC(=N)N)NC1=O [bGPMB, biotinylated guanidinylated polymyxin B] (Biotin-[X1][Agb]T[Agb][Dab][Agb][dF]L[Agb][Agb]T; lactam 5-C) | no cytotoxicity | no cytotoxicity | – | – | –
Polymyxin B [PMB, reference compound] | – | – | No enhanced uptake | enhance delivery | –
